The text below walks through data of patent publication US10023590B2, “Substituted pyridine compounds having herbicidal activity” (BASF SE, priority 2014, dated 2018).

Format in all cases: in vivo
In data set [1] the test system is Zea mays. In words: Greenhouse post-emergence herbicidal activity on crop ZEAMX (corn, maize). Details: key: 0 = no damage/normal growth, 100 = no emergence or complete destruction. From the text: (§1) The culture containers used were plastic flowerpots containing loamy sand with approximately 3.0% of humus as the substrate. The seeds of the test plants were sown separately for each species.
(§2) For the post-emergence treatment, the test plants were first grown to a height of 3 to 15 cm, depending on the plant habit, and only then treated with the active ingredients which had been suspended or emulsified in water. For this purpose, the test plants were either sown directly and grown in the same containers, or they were first grown separately as seedlings and transplanted into the test containers a few days prior to treatment.
(§3) Depending on the species, the plants were kept at 10-25° C. or 20-35° C., respectively.
(§4) The test period extended over 2 to 4 weeks. During this time, the plants were tended, and their response to the individual treatments was evaluated.
(§5) Evaluation was carried out using a scale from 0 to 100. 100 means no emergence of the plants, or complete destruction of at least the aerial moieties, and 0 means no damage, or normal course of growth. A good herbicidal activity is given at values of at least 70 and a very good herbicidal activity is given at values of at least 85.

Data set [2] deals with Echinocloa crus-galli. The data set can be described thus: Greenhouse post-emergence herbicidal activity, ECHCG. The conditions noted are these: Echinochloa crus-galli, ECHCG; for pest or weed control at 250 g/ha: 0.25 kg/ha.
Description: as §1, §2, §3, §4, §5

Data set [3] deals with Oryza sativa. In words: Greenhouse post-emergence herbicidal activity on crop ORYSA (rice).
Description: as §1, §2, §3, §4, §5

Data set [4] has as its system Amaranthus retroflexus. In words: Greenhouse post-emergence herbicidal activity, AMARE. The conditions noted are these: AMARE; for pest or weed control at 250 g/ha: 0.25 kg/ha.
Description: as §1, §2, §3, §4, §5

Data set [5] has as its system Chenopodium album. The data set can be described thus: Greenhouse post-emergence herbicidal activity, CHEAL. Conditions: for pest or weed control at 250 g/ha: 0.25 kg/ha.
Description: as §1, §2, §3, §4, §5

The mark [6] stands for this setting: ZEAMX (corn, crop), 0.125 kg/ha, scale 0 to 100.
Setting [7] is: ORYSA (rice, crop), 0.125 kg/ha, scale 0 to 100.
Where [8] appears, read: ZEAMX (corn, crop), 0.031 kg/ha, scale 0 to 100.
[9] abbreviates: ZEAMX (corn, crop), 0.063 kg/ha, scale 0 to 100.
The mark [10] stands for this setting: ORYSA (rice, crop), 0.031 kg/ha, scale 0 to 100.
The mark [11] stands for this setting: ORYSA (rice, crop), 0.063 kg/ha, scale 0 to 100.
[12] abbreviates: crop ZEAMX (corn, maize), application rate 0.031 kg/ha.
The mark [13] stands for this setting: crop ZEAMX (corn, maize), application rate 0.063 kg/ha.
Where [14] appears, read: crop ZEAMX (corn, maize), application rate 0.125 kg/ha.
The mark [15] stands for this setting: crop ORYSA (rice), application rate 0.031 kg/ha.
The mark [16] stands for this setting: crop ORYSA (rice), application rate 0.063 kg/ha.
[17] abbreviates: crop ORYSA (rice), application rate 0.125 kg/ha.

A word on the pest or weed control: it is how far the test organism was held down. As to `CS(=O)(=O)Nc1c(Cl)ccc(C2=C(O)c3ncccc3CS2(=O)=O)c1Cl` [I-1, N-[2,6-dichloro-3-(8-hydroxy-6,6-dioxo-5H-thiopyrano[4,3-b]pyridin-7-yl)phenyl]methanesulfonamide], the Herbicidal activity in data set [1] (setting [6]) is 0; in data set [3] (setting [7]) it was 0; in data set [3] (ORYSA (rice, crop), 0.25 kg/ha, scale 0 to 100), 0. For the same molecule, the pest or weed control at 125 g/ha is 70% in data set [2] (0.125 kg/ha, scale 0 to 100); 75% in data set [4] (0.125 kg/ha, scale 0 to 100); 80% in data set [5] (0.125 kg/ha, scale 0 to 100). Further, the pest or weed control at 250 g/ha in data set [2] (scale 0 to 100) is 80%; in data set [4] (scale 0 to 100) it was 80%; in data set [5] (scale 0 to 100), 95%.

Turning to `CN(c1ccc(Cl)c(C2=C(O)c3ncccc3CS2(=O)=O)c1Cl)S(C)(=O)=O` [I-4, N-[2,4-dichloro-3-(8-hydroxy-6,6-dioxo-5H-thiopyrano[4,3-b]pyridin-7-yl)phenyl]-N-methyl-methanesulfonamide], the Herbicidal activity in data set [1] (setting [8]) is recorded as 0; in data set [1] (setting [9]), 20; in data set [1] (setting [6]) it was 55; in data set [3] (setting [10]), 25; in data set [3] (setting [11]) it was 35; in data set [3] (setting [7]), 50. The pest or weed control at 31 g/ha in data set [2] (0.031 kg/ha, scale 0 to 100) is 98%; in data set [4] (0.031 kg/ha, scale 0 to 100) it was 90%; in data set [5] (0.031 kg/ha, scale 0 to 100) it was 85%. For the same molecule, the pest or weed control at 63 g/ha in data set [2] (0.063 kg/ha, scale 0 to 100) amounted to 90%; in data set [4] (0.063 kg/ha, scale 0 to 100), 90%; in data set [5] (0.063 kg/ha, scale 0 to 100) it was 95%. The pest or weed control at 125 g/ha stood at 98% in data set [2] (0.125 kg/ha, scale 0 to 100); 98% in data set [4] (0.125 kg/ha, scale 0 to 100); 100% in data set [5] (0.125 kg/ha, scale 0 to 100). For the same molecule, the pest or weed control at 250 g/ha in data set [2] (scale 0 to 100) came to 100%; in data set [4] (scale 0 to 100), 98%; in data set [5] (scale 0 to 100), 100%.

Take `CN(c1c(Cl)ccc(C2=C(O)c3ncccc3CS2(=O)=O)c1Cl)S(=O)(=O)CC1CC1` [I-20, 1-cyclopropyl-N-[2,6-dichloro-3-(8-hydroxy-6,6-dioxo-5H-thiopyrano[4,3-b]pyridin-7-yl)phenyl]-N-methyl-methanesulfonamide]: the Herbicidal activity in data set [1] (setting [8]), in data set [1] (setting [9]) and in data set [1] (setting [6]) was 0 each time. Besides, the pest or weed control at 31 g/ha in data set [2] (0.031 kg/ha, scale 0 to 100) amounted to 100%; in data set [4] (0.031 kg/ha, scale 0 to 100) it was 90%; in data set [5] (0.031 kg/ha, scale 0 to 100), 100%. Also, the pest or weed control at 63 g/ha in data set [2] (0.063 kg/ha, scale 0 to 100) turned out to be 100%; in data set [4] (0.063 kg/ha, scale 0 to 100) it was 90%; in data set [5] (0.063 kg/ha, scale 0 to 100), 100%. Further, the pest or weed control at 125 g/ha in data set [2] (0.125 kg/ha, scale 0 to 100) amounted to 100%; in data set [4] (0.125 kg/ha, scale 0 to 100), 100%; in data set [5] (0.125 kg/ha, scale 0 to 100), 100%.

As to `CN(c1cccc(C2=C(O)c3ncccc3CS2(=O)=O)c1Cl)S(C)(=O)=O` [I-15, N-[2-chloro-3-(8-hydroxy-6,6-dioxo-5H-thiopyrano[4,3-b]pyridin-7-yl)phenyl]-N-methyl-methanesulfonamide], the Herbicidal activity in data set [1] (setting [6]) was found to be 35; in data set [3] (setting [10]) it was 0; in data set [3] (setting [11]), 0; in data set [3] (setting [7]), 20. For the same molecule, the pest or weed control at 31 g/ha was determined as 85% in data set [2] (0.031 kg/ha, scale 0 to 100); 75% in data set [4] (0.031 kg/ha, scale 0 to 100); 90% in data set [5] (0.031 kg/ha, scale 0 to 100). Besides, the pest or weed control at 63 g/ha turned out to be 90% in data set [2] (0.063 kg/ha, scale 0 to 100); 85% in data set [4] (0.063 kg/ha, scale 0 to 100); 98% in data set [5] (0.063 kg/ha, scale 0 to 100). Also, the pest or weed control at 125 g/ha in data set [2] (0.125 kg/ha, scale 0 to 100) stood at 98%; in data set [4] (0.125 kg/ha, scale 0 to 100) it was 90%; in data set [5] (0.125 kg/ha, scale 0 to 100), 98%.

Turning to `CN(c1cccc(C2=C(O)c3ncccc3C(C)(C)S2(=O)=O)c1S(C)(=O)=O)S(C)(=O)=O` [I-34, N-[3-(8-hydroxy-5,5-dimethyl-6,6-dioxo-thiopyrano[4,3-b]pyridin-7-yl)-2-methylsulfonyl-phenyl]-N-methyl-methanesulfonamide], the Herbicidal activity in data set [1] (setting [12]) is listed as 0; in data set [1] (setting [13]) it was 0; in data set [1] (setting [14]), 15; in data set [3] (setting [15]) it was 0; in data set [3] (setting [16]), 0; in data set [3] (setting [17]) it was 0. Also, the pest or weed control at 125 g/ha stood at 70% in data set [2] (application rate 0.125 kg/ha), 98% in data set [4] (application rate 0.125 kg/ha) and 100% in data set [5] (application rate 0.125 kg/ha). The pest or weed control at 31 g/ha in data set [4] (application rate 0.031 kg/ha) stood at 90%; in data set [5] (application rate 0.031 kg/ha) it was 95%. The pest or weed control at 63 g/ha in data set [4] (application rate 0.063 kg/ha) was 95%; in data set [5] (application rate 0.063 kg/ha) it was 98%.

As to `CS(=O)(=O)N(c1c(Cl)ccc(C2=C(O)c3ncccc3CS2(=O)=O)c1Cl)C1CC1` [I-24, N-cyclopropyl-N-[2,6-dichloro-3-(8-hydroxy-6,6-dioxo-5H-thiopyrano[4,3-b]pyridin-7-yl)phenyl]methanesulfonamide], the Herbicidal activity in data set [1] (setting [8]) is on record as 0; in data set [1] (setting [9]), 0; in data set [1] (setting [6]), 15; in data set [1] (ZEAMX (corn, crop), 0.25 kg/ha, scale 0 to 100), 15; in data set [3] (setting [10]) it was 0; in data set [3] (setting [11]), 15. Also, the Herbicidal activity in data set [3] (setting [7]) worked out at 20. Besides, the pest or weed control at 31 g/ha was found to be 80% in data set [2] (0.031 kg/ha, scale 0 to 100); 70% in data set [4] (0.031 kg/ha, scale 0 to 100); 80% in data set [5] (0.031 kg/ha, scale 0 to 100). Besides, the pest or weed control at 63 g/ha was determined as 85% in data set [2] (0.063 kg/ha, scale 0 to 100); 75% in data set [4] (0.063 kg/ha, scale 0 to 100); 85% in data set [5] (0.063 kg/ha, scale 0 to 100). Further, the pest or weed control at 125 g/ha in data set [2] (0.125 kg/ha, scale 0 to 100) was determined as 90%; in data set [4] (0.125 kg/ha, scale 0 to 100), 85%; in data set [5] (0.125 kg/ha, scale 0 to 100), 90%. Besides, the pest or weed control at 250 g/ha in data set [2] (scale 0 to 100) came to 95%; in data set [4] (scale 0 to 100), 90%; in data set [5] (scale 0 to 100), 98%.

Consider `CN(c1cccc(C2=C(O)c3ncccc3CS2(=O)=O)c1S(C)(=O)=O)S(C)(=O)=O` [I-33, N-[3-(8-hydroxy-6,6-dioxo-5H-thiopyrano[4,3-b]pyridin-7-yl)-2-methylsulfonyl-phenyl]-N-methyl-methanesulfonamide], for which the Herbicidal activity in data set [1] (setting [12]) amounted to 0; in data set [1] (setting [13]), 0; in data set [1] (setting [14]), 0; in data set [3] (setting [15]), 0; in data set [3] (setting [16]), 20; in data set [3] (setting [17]), 10. For the same molecule, the figures for the pest or weed control at 63 g/ha in data set [4] (application rate 0.063 kg/ha) and in data set [5] (application rate 0.063 kg/ha) were 85% and 98%, respectively. Moreover, the pest or weed control at 125 g/ha in data set [4] (application rate 0.125 kg/ha) and in data set [5] (application rate 0.125 kg/ha) was 90% throughout. This molecule came in with a pest or weed control at 31 g/ha in data set [5] (application rate 0.031 kg/ha) of 85%.

In the case of `CN(c1c(Cl)ccc(C2=C(O)c3ncc(F)cc3CS2(=O)=O)c1Cl)S(C)(=O)=O` [I-37, N-[2,6-dichloro-3-(3-fluoro-8-hydroxy-6,6-dioxo-5H-thiopyrano[4,3-b]pyridin-7-yl)phenyl]-N-methyl-methanesulfonamide], the Herbicidal activity in data set [1] (setting [12]), in data set [1] (setting [13]), in data set [3] (setting [15]), in data set [3] (setting [16]) and in data set [3] (setting [17]) was 0 each time. Besides, the pest or weed control at 31 g/ha in data set [2] (application rate 0.031 kg/ha) and in data set [5] (application rate 0.031 kg/ha) was 90% each time. Moreover, the pest or weed control at 63 g/ha in data set [2] (application rate 0.063 kg/ha) and in data set [5] (application rate 0.063 kg/ha) was 90% in each case. Further, the figures for the pest or weed control at 125 g/ha in data set [2] (application rate 0.125 kg/ha) and in data set [5] (application rate 0.125 kg/ha) were 95% and 90%, respectively.
